Biological target: T1, Purine nucleoside phosphorylase (Plasmodium falciparum, UniProt Q8T9Z7)
T1 sequence (Q8T9Z7 whole entry): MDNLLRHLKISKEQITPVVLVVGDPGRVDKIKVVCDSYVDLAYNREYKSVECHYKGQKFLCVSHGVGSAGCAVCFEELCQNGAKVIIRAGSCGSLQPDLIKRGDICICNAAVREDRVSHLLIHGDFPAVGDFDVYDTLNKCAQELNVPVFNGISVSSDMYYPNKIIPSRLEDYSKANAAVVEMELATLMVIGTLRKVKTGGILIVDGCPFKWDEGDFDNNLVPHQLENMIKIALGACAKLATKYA
Experiment: Inhibition of Plasmodium falciparum PNP expressed in Escherichia coli BL21(DE3) cells by spectrophotometry

O=c1[nH]c(O)c(Cc2ccccc2)c(=O)[nH]1 [5-benzylpyrimidine-2,4,6(1H,3H,5H)-trione]
IC50: > 1000 µM

From BindingDB's records for doi:10.1016/j.ejmech.2010.08.026 (Instituto De Parasitología Y Biomedicina …, 2010)
